# Tested on: breast tissue
# Assay: Mifepristone trial: breast tissue biopsies before and after treatment, DNA methylation (EPIC array), EpiDISH cell type composition and WID-BC-index
# Assay type: in vivo, human
# Text: The second set of samples were obtained from the clinical trial “The Effect of a Progesterone Receptor Modulator on Breast Tissue in Women With BRCA-1 and -2 Mutations—a Placebo Controlled RCT” (ClinicalTrials.gov Identifier: NCT01898312; regional ethical review board at Karolinska Institutet permit 2009/144-31/4). Study subjects were healthy premenopausal women aged 18-43 years with regular menstrual cycles lasting 25-35 days and with no contraindications to mifepristone. The main exclusion criteria were: use of any hormonal or intrauterine contraception and pregnancy or breastfeeding 2 months prior to the study; a history of breast cancer or other malignancies and adnexal abnormality upon transvaginal ultrasound examination. All women were instructed to use barrier contraceptive methods throughout the duration of the study.
# After signing an informed consent, study subjects were randomised into two groups. One group (i.e. 11 BRCA carriers and 9 controls) was treated with 50 mg mifepristone (one quarter of 200 mg Mifegyne®, Exelgyn, Paris, France) every other day for two months (56 days) starting on the first day of the menstrual cycle. […]
# We analysed breast tissue samples from 21 BRCA carriers and 23 healthy controls before and after treatment with either mifepristone or placebo for two months. […]
compound,measurement,setting,value
CC#C[C@]1(O)CC[C@H]2[C@@H]3CCC4=CC(=O)CCC4=C3[C@@H](c3ccc(N(C)C)cc3)C[C@@]21C [mifepristone],women with downward trend in the WID-BC-index after treatment,"breast tissue, after adjustment for fat content, before vs after two months treatment, did not reach statistical significance",80%
same,epithelial cell proportion in breast tissue samples after treatment,"matched BRCA carrier and control groups, before vs after 50 mg every other day for two months, not seen in the placebo group",statistically significant decrease

# Source: patent publication US20220205049A1, “METHODS OF DETECTING AND PREDICTING BREAST CANCER” (priority 2019, published 2022)
